Assay results published in US20050130237A1, “High throughput screening method for compounds with non-, pro-, or anti-apoptotic or proliferative or necrotic activity” (priority 2002, published 2005).
Peptide text beside a SMILES is read from it. * marks the point of attachment. Cbz = O=C(OCc1ccccc1)*; CH2F = FC*

How the values were obtained:
Type in all cases: cell-based, human
HeLa cells [1] = experiment: Primary screening: overall EGFP relative fluorescence activity per well, fluorescence microplate reader, 96-well plates; details: values under 0.8 = pro-apoptotic and/or necrotic
From the text: A representative primary screening with standard experimental set-up, where 16 commercially available anti-cancer drugs have been tested on five different EGFP expressing cell lines (HeLa, KB, A20, Ramos and Jurkat) in 96-well microtiter plates is shown in FIG. 2. Differential susceptibility regarding induction of apoptosis and/or necrosis after treatement with 5-Fluorouracil (5-FU), Gemzar, Methotrexate, Eloxantin, Detimedac, Endoxan, Paraplatin, Navelbine, Velbe, Taxotere, Taxol, Adriblastin, Bleomycin, Campto, Etopophos and Farmorubicin is shown. Measurements after 24 h and 48 h were performed with a fluorescence microplate reader, which measures the overall fluorescence activity in a single well. Used compound concentrations are indicated by a fraction of the original concentration.
The setting of a cut-off value, corresponding to 0.8 in this case, allows the clear discrimination between two main groups of different activities. […] According to these intermediate values between 0 and 0.8 measured by a fluorescence microplate reader, it can hardly be discriminated between the subpopulations of apoptotic and necrotic cells within the same well. […]
Immediately after the addition of the compounds to the cells the zero fluorescence value (t=0 h) was determined by using a fluorescence microplate reader in order to be able to normalize the fluorescence activities. […]

HeLa cells [2] = experiment: Secondary screening: FACS analysis discriminating apoptotic and necrotic activity of anti-cancer drugs; details: for necrotic activity (FACS histograms): necrosis evident after exposure longer than 24 h, followed up to 48 h, Navelbine, Velbe, Campto 1/1000 diluted, Adriblastin 1/2000 diluted
From the text: For this purpose HeLa cells have been treated with typical anti-cancer drugs of different mode of actions. Navelbine and Velbe, two typical representatives of microtubules interfering drugs and Adriblastin and Campto, topo-isomerase inhibitors, which interfere with DNA synthesis.
Arrows indicate regions with either necrotic cells (left arrow) or apoptotic cells (middle arrow) or proliferating/living cells (right arrow). […] This fact became evident after exposure of the cells for longer than 24 h.
HeLa cells have been treated with typical anti-cancer drugs of different mode of actions. Navelbine and Velbe, two typical representatives of microtubules interfering drugs and Adriblastin and Campto, topo-isomerase inhibitor, which interfere with DNA synthesis. Histograms of FACS analysis of cells treated either with Navelbine (1/1000 diluted), Velbe (1/1000 diluted), Adriblastin (1/2000 diluted) and Campto (1/1000 diluted) are shown in FIG. 4. Arrows indicate regions with either necrotic cells (left arrow), apoptotic cells (middle arrow) and proliferating cells (right arrow). […] This fact became evident after exposure of the cells for longer than 24 h.

JurkatGFP cells = experiment: Anti-apoptotic activity after induction of apoptosis by serially diluted soluble FasL, fluorescence microplate reader; details: 24 h incubation, compared with control peptide zFA
From the text: The activity of an anti-apoptotic compound, e.g. the pan caspase inhibitor zVADfmk, has been tested on JurkatGFP cells after induction of apoptosis by serially diluted soluble FasL and measured by a fluorescence microplate reader. […] The bars indicate standard deviations, which have been determined by measuring 6 single values for each datapoint.

| SMILES | necrotic activity (FACS histograms) (HeLa cells [2]) | further results |
| --- | --- | --- |
| COc1cccc2c1C(=O)c1c(O)c3c(c(O)c1C2=O)C[C@@](O)(C(=O)CO)C[C@@H]3O[C@H]1C[C@H](N)[C@H](O)[C@H](C)O1 [Adriblastin] | do not show any tendency for necrotic activity | relative fluorescence activity (intermediate value, cut-off 0.8) (HeLa cells [1]; highest concentration 1/5 k of original concentration): 0.53; apoptotic activity (FACS histograms) (HeLa cells [2]; single-cell flow cytometry): only induce apoptosis |
| CCc1c2c(nc3ccc(OC(=O)N4CCC(N5CCCCC5)CC4)cc13)-c1cc3c(c(=O)n1C2)COC(=O)[C@]3(O)CC [Campto] | do not show any tendency for necrotic activity |  |
| CCC1=C[C@@H]2CN(C1)Cc1c([nH]c3ccccc13)[C@@](C(=O)OC)(c1cc3c(cc1OC)N(C)[C@H]1[C@@](O)(C(=O)OC)[C@H](OC(C)=O)[C@]4(CC)C=CCN5CC[C@]31[C@@H]54)C2 [Navelbine] | strong tendency to induce necrosis | relative fluorescence activity (intermediate value, cut-off 0.8) (HeLa cells [1]; highest concentration 1/10 k of original concentration): 0.49 |
| CC[C@]1(O)C[C@@H]2CN(CCc3c([nH]c4ccccc34)[C@@](C(=O)OC)(c3cc4c(cc3OC)N(C)[C@H]3[C@@](O)(C(=O)OC)[C@H](OC(C)=O)[C@]5(CC)C=CCN6CC[C@]43[C@@H]65)C2)C1 [Velbe] | strong tendency to induce necrosis |  |
| COC(=O)C[C@H](NC(=O)[C@H](C)NC(=O)[C@@H](NC(=O)OCc1ccccc1)C(C)C)C(=O)CF [zVAD] (Cbz-Val-Ala-Asp(OMe)-CH2F) |  | anti-apoptotic effect on the apoptotic activity of FasL (JurkatGFP cells): clear inhibitory anti-apoptotic effect |
